Patent publication US6737383B1, “Herbicidal oxadiazolidines” (priority 1999, dated 2004)

What was measured:
crabgrass = assay: Test B pre/postemergence crabgrass; assay type: in vivo, Digitaria sanguinalis
Method in brief: (§1)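 Response is a visual 0-to-10 score relative to untreated plants, where 0 means no effect and 10 means complete control, taken twelve to sixteen days after application. Treatments went onto soil at planting and onto foliage of 1- to 4-leaf plants, using a surfactant-containing non-phytotoxic solvent.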

wild oat = assay: Test B pre/postemergence wild oat; assay type: in vivo, Avena fatua
Method in brief: as §1

cocklebur = assay: Test B pre/postemergence cocklebur; assay type: in vivo, Xanthium strumarium
Method in brief: as §1

bedstraw = assay: Test B pre/postemergence bedstraw; assay type: in vivo, Galium aparine
Method in brief: as §1

smallflower flatsedge = assay: Test B flood test smallflower flatsedge; assay type: in vivo, Cyperus difformis
Method in brief: (§2)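 Each value is a visual injury score relative to controls, with 10 meaning complete control and 0 no effect. Evaluation took place twelve to sixteen days after the 2-leaf-stage plants were treated and kept in the greenhouse.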

morningglory = assay: Test B pre/postemergence morningglory; assay type: in vivo, Ipomoea hederacea
Method in brief: as §1

soybean = assay: Test B pre/postemergence soybean; assay type: in vivo, Glycine max
Method in brief: as §1

pigweed = assay: Test B pre/postemergence pigweed; assay type: in vivo, Amaranthus retroflexus
Method in brief: as §1

giant foxtail = assay: Test B pre/postemergence giant foxtail; assay type: in vivo, Setaria faberii
Method in brief: as §1

rice = assay: Test B flood test rice; assay type: in vivo, Oryza sativa
Method in brief: as §2

wheat = assay: Test B pre/postemergence wheat; assay type: in vivo, Triticum aestivum
Method in brief: as §1

velvetleaf = assay: Test B pre/postemergence velvetleaf; assay type: in vivo, Abutilon theophrasti
Method in brief: as §1

surinam grass = assay: Test B pre/postemergence surinam grass; assay type: in vivo, Brachiaria decumbens
Method in brief: as §1

bamyardgrass = assay: Test B flood test barnyardgrass; assay type: in vivo, Echinochloa crus-galli
Method in brief: as §2

corn = assay: Test B pre/postemergence corn; assay type: in vivo, Zea mays
Method in brief: as §1

blackgrass = assay: Test B pre/postemergence blackgrass; assay type: in vivo, Alopecurus myosuroides
Method in brief: as §1

[1] = Preemergence, Rate 62 g/ha, scale of 0 to 10 where 0 is no effect and 10 is complete control
[2] = Preemergence, Rate 125 g/ha, 0 is no effect, 10 is complete control
[3] = Preemergence, Rate 250 g/ha, scale 0 to 10, 0 is no effect, 10 is complete control
[4] = Preemergence, Rate 500 g/ha, scale of 0 to 10 where 0 is no effect and 10 is complete control
[5] = Rate 62 g/ha, Postemergence, scale of 0 to 10 where 0 is no effect and 10 is complete control
[6] = Rate 125 g/ha, Postemergence, scale 0 to 10
[7] = Rate 500 g/ha, Postemergence, scale 0 to 10
[8] = Rate 62 g/ha, headed Pre-emergence (flood test species), scale 0 to 10 (0 no effect, 10 complete control)
[9] = Rate 125 g/ha, Pre-emergence, flood test species, scale 0 to 10 where 0 is no effect and 10 is complete control
[10] = Rate 250 g/ha, Pre-emergence, flood-test species, scale 0 to 10, 0 is no effect, 10 is complete control
[11] = Rate 500 g/ha, headed Pre-emergence (flood test species), scale 0 to 10 (0 no effect, 10 complete control)

CSc1ccc(N(C(=O)n2oc(=O)n(-c3ccccc3C)c2=O)C(C)C)cc1 [Compound 205]
0: Crabgrass plant response rating (crabgrass; [1]) | Crabgrass plant response rating (0 to 10 scale) (crabgrass; [2]) | Crabgrass plant response rating (crabgrass; [5]) | Crabgrass plant response rating (crabgrass; [6]) | Wild oats plant response rating (wild oat; [1]) | Wild oats plant response rating (wild oat; [3]) | Plant response rating, Wild oats (wild oat; [4]) | Wild oats plant response rating (wild oat; [5]) | Wild oats plant response rating (wild oat; [6]) | Plant response rating (0 to 10; 0 is no effect, 10 is complete control), Wild oats (wild oat; Rate 250 g/ha, Postemergence) | Cocklebur plant response rating (cocklebur; [1]) | Cocklebur plant response rating (0 to 10 scale) (cocklebur; [2]) | Cocklebur plant response rating (cocklebur; [3]) | Plant response rating, Cocklebur (cocklebur; [4]) | Cocklebur plant response rating (cocklebur; [5]) | Bedstraw plant response rating (bedstraw; [1]) | Bedstraw plant response rating (0 to 10 scale) (bedstraw; [2]) | Bedstraw plant response rating (bedstraw; [3]) | Plant response rating, Bedstraw (bedstraw; [4]) | Bedstraw plant response rating (bedstraw; [5]) | Bedstraw plant response rating (bedstraw; [6]) | Plant response rating (0 to 10; 0 is no effect, 10 is complete control), Bedstraw (bedstraw; Rate 250 g/ha, Postemergence) | Bedstraw plant response rating (bedstraw; [7]) | S. Flatsedge plant response rating (smallflower flatsedge; [8]) | S. Flatsedge plant response rating (smallflower flatsedge; [9]) | S. Flatsedge plant response rating (smallflower flatsedge; [10]) | S. Flatsedge plant response rating (smallflower flatsedge; Rate 500 g/ha, Pre-emergence, flood test species, scale 0 to 10 (0 no effect, 10 complete control)) | Morningglory plant response rating (morningglory; [1]) | Morningglory plant response rating (0 to 10 scale) (morningglory; [2]) | Morningglory plant response rating (morningglory; [3]) | Plant response rating, Morningglory (morningglory; [4]) | Morningglory plant response rating (morningglory; [5]) | Morningglory plant response rating (morningglory; [6]) | Soybean plant response rating (soybean; [1]) | Soybean plant response rating (0 to 10 scale) (soybean; [2]) | Soybean plant response rating (soybean; [3]) | Plant response rating, Soybean (soybean; [4]) | Soybean plant response rating (soybean; [5]) | Redroot pigweed plant response rating (pigweed; [1]) | Redroot pigweed plant response rating (0 to 10 scale) (pigweed; [2]) | Redroot pigweed plant response rating (pigweed; [3]) | Plant response rating, Redroot pigweed (pigweed; [4]) | Redroot pigweed plant response rating (pigweed; [5]) | Redroot pigweed plant response rating (pigweed; [6]) | Plant response rating (0 to 10; 0 is no effect, 10 is complete control), Redroot pigweed (pigweed; Rate 250 g/ha, Postemergence) | Redroot pigweed plant response rating (pigweed; [7]) | Giant foxtail plant response rating (giant foxtail; [1]) | Giant foxtail plant response rating (0 to 10 scale) (giant foxtail; [2]) | Giant foxtail plant response rating (giant foxtail; [3]) | Giant foxtail plant response rating (giant foxtail; [5]) | Giant foxtail plant response rating (giant foxtail; [6]) | Plant response rating (0 to 10; 0 is no effect, 10 is complete control), Giant foxtail (giant foxtail; Rate 250 g/ha, Postemergence) | Giant foxtail plant response rating (giant foxtail; [7]) | Rice plant response rating (rice; [8]) | Rice plant response rating (rice; [9]) | Rice plant response rating (rice; [10]) | Plant response rating, Rice (rice; [11]) | Wheat plant response rating (wheat; [1]) | Wheat plant response rating (wheat; [3]) | Plant response rating, Wheat (wheat; [4]) | Wheat plant response rating (wheat; [5]) | Wheat plant response rating (wheat; [6]) | Plant response rating (0 to 10; 0 is no effect, 10 is complete control), Wheat (wheat; Rate 250 g/ha, Postemergence) | Velvetleaf plant response rating (velvetleaf; [1]) | Velvetleaf plant response rating (velvetleaf; [3]) | Plant response rating, Velvetleaf (velvetleaf; [4]) | Velvetleaf plant response rating (velvetleaf; [5]) | Velvetleaf plant response rating (velvetleaf; [6]) | Plant response rating (0 to 10; 0 is no effect, 10 is complete control), Velvetleaf (velvetleaf; Rate 250 g/ha, Postemergence) | B. signalgrass plant response rating (surinam grass; [1]) | B. signalgrass plant response rating (0 to 10 scale) (surinam grass; [2]) | B. signalgrass plant response rating (surinam grass; [3]) | Plant response rating, B. signalgrass (surinam grass; [4]) | B. signalgrass plant response rating (surinam grass; [5]) | B. signalgrass plant response rating (surinam grass; Rate 125 g/ha, Postemergence, scale 0 (no effect) to 10 (complete control)) | Plant response rating, B. signalgrass (surinam grass; Rate 250 g/ha, Postemergence, scale 0 to 10, 0 is no effect, 10 is complete control) | B. signalgrass plant response rating (surinam grass; Rate 500 g/ha, Postemergence, scale 0 to 10, 0 no effect, 10 complete control) | Barnyardgrass plant response rating (bamyardgrass; [8]) | Barnyardgrass plant response rating (bamyardgrass; [9]) | Barnyardgrass plant response rating (bamyardgrass; [10]) | Plant response rating, Barnyardgrass (bamyardgrass; [11]) | Corn plant response rating (corn; [1]) | Corn plant response rating (0 to 10 scale) (corn; [2]) | Corn plant response rating (corn; [3]) | Plant response rating, Corn (corn; [4]) | Corn plant response rating (corn; [5]) | Corn plant response rating (corn; [6]) | Plant response rating (0 to 10; 0 is no effect, 10 is complete control), Corn (corn; Rate 250 g/ha, Postemergence) | Corn plant response rating (corn; [7]) | Blackgrass plant response rating (blackgrass; [1]) | Blackgrass plant response rating (0 to 10 scale) (blackgrass; [2]) | Blackgrass plant response rating (blackgrass; [3]) | Plant response rating, Blackgrass (blackgrass; [4]) | Blackgrass plant response rating (blackgrass; [5]) | Blackgrass plant response rating (blackgrass; [6]) | Plant response rating (0 to 10; 0 is no effect, 10 is complete control), Blackgrass (blackgrass; Rate 250 g/ha, Postemergence) | Blackgrass plant response rating (blackgrass; [7])
1: Crabgrass plant response rating (crabgrass; [3]) | Plant response rating (0 to 10; 0 is no effect, 10 is complete control), Crabgrass (crabgrass; Rate 250 g/ha, Postemergence) | Crabgrass plant response rating (crabgrass; [7]) | Cocklebur plant response rating (cocklebur; [6]) | Plant response rating (0 to 10; 0 is no effect, 10 is complete control), Cocklebur (cocklebur; Rate 250 g/ha, Postemergence) | Plant response rating (0 to 10; 0 is no effect, 10 is complete control), Morningglory (morningglory; Rate 250 g/ha, Postemergence) | Soybean plant response rating (soybean; [6])
3: Plant response rating, Giant foxtail (giant foxtail; [4])
8: Plant response rating, Crabgrass (crabgrass; [4])
2: Cocklebur plant response rating (cocklebur; [7]) | Morningglory plant response rating (morningglory; [7]) | Plant response rating (0 to 10; 0 is no effect, 10 is complete control), Soybean (soybean; Rate 250 g/ha, Postemergence) | Soybean plant response rating (soybean; [7])
